Reference: ChEMBL document CHEMBL5465560, “Selectivity Literature for EUbOPEN Chemogenomic Library” (2024)

How the values were obtained:
[1] = biological target: Serine/threonine-protein kinase 10 (Homo sapiens) (UniProt O94804); test: Selectivity interaction (ActivX KiNativ screen (kinase selectivity in THP-1 cell lysates)) EUB0000639a STK10; assay type: subcellular; conditions: lysate, at 0.04 µM
[2] = biological target: Serine/threonine-protein kinase 38-like (Homo sapiens) (UniProt Q9Y2H1); test: Selectivity interaction (ActivX KiNativ screen (kinase selectivity in THP-1 cell lysates)) EUB0000639a STK38L; assay type: subcellular; conditions: lysate, at 0.01 µM
[3] = biological target: T1, Histone-arginine methyltransferase CARM1 (Homo sapiens) (UniProt Q86X55); conditions: KMS-20, at 3 µM
T1 sequence (whole entry): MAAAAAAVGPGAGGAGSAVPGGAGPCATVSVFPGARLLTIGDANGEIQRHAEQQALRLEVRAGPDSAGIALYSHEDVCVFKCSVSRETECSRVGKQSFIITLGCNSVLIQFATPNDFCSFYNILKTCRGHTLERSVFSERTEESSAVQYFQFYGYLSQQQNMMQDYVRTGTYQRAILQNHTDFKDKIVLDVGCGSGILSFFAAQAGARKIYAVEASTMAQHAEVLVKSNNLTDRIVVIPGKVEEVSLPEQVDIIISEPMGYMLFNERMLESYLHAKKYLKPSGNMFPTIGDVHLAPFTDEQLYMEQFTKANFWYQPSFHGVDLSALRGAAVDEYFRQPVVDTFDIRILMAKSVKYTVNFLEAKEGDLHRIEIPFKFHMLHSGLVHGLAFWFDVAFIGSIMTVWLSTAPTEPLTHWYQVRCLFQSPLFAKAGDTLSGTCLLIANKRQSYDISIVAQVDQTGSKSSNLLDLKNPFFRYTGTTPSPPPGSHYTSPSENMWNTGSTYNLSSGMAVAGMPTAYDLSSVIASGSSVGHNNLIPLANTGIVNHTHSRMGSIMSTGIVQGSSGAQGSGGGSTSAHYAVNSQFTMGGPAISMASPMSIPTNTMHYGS

[4] = biological target: Proto-oncogene tyrosine-protein kinase Src (Homo sapiens, UniProt P12931); test: Selectivity interaction (Kinase panel (literature)) EUB0001199aCl SRC; conditions: at 1 µM
[5] = biological target: Tyrosine-protein kinase HCK (Homo sapiens) (UniProt P08631); test: Selectivity interaction (Kinase panel (Z-LYTE Assay)) EUB0001632a HCK; conditions: at 10 µM
[6] = biological target: T2, Serine/threonine-protein kinase 3 (Homo sapiens) (UniProt Q13188); test: Selectivity interaction (KinomeScan (DiscoverX)) EUB0000695a STK3; conditions: at 100 nM
T2 sequence (whole entry): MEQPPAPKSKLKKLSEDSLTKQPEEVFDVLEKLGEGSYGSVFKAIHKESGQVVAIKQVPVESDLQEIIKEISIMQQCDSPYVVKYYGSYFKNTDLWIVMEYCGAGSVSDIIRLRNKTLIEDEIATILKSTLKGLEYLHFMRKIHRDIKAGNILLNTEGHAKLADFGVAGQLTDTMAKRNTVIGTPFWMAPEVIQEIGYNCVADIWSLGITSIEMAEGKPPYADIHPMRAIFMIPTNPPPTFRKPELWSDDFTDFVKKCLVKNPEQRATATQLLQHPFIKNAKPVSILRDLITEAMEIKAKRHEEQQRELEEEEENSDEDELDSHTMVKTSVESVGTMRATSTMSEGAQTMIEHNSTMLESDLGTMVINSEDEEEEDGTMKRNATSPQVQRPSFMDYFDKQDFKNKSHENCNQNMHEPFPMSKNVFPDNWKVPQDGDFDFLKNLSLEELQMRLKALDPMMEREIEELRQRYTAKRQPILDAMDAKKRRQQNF

[7] = biological target: T3, Ephrin type-A receptor 8 (Homo sapiens) (UniProt P29322); test: Selectivity interaction (KinomeScan (DiscoverX)) EUB0001079a EPHA8; conditions: at 1 µM
T3 sequence (whole entry): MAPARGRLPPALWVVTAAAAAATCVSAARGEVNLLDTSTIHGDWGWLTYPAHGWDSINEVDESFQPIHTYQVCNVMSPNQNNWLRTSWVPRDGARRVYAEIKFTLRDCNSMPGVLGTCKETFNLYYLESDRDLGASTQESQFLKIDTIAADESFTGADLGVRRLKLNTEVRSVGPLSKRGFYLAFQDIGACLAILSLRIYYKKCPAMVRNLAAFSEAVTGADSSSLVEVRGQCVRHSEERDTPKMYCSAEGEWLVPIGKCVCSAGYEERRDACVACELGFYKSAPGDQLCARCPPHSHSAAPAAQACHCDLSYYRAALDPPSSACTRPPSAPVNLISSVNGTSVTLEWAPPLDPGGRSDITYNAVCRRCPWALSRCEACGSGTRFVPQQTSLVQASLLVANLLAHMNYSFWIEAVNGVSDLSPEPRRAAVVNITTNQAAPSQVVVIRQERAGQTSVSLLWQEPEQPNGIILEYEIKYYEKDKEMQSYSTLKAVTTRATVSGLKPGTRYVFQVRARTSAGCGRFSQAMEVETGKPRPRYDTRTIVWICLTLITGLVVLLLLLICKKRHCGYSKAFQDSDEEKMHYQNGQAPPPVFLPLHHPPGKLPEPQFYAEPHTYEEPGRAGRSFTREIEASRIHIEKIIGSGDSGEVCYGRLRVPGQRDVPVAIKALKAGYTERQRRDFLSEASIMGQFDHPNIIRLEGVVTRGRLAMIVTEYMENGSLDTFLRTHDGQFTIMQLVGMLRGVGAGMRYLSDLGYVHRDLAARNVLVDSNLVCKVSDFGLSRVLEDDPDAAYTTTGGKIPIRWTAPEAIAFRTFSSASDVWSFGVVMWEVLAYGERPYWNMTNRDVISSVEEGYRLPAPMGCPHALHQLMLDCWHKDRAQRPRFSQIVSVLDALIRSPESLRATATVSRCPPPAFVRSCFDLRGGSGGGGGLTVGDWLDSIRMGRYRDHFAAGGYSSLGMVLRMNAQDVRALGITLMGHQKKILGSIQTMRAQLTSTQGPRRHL

[8] = biological target: Platelet-derived growth factor receptor alpha (Homo sapiens, UniProt P16234); test: Selectivity interaction (KinomeScan (DiscoverX)) EUB0000607a PDGFRA; conditions: at 10 µM
Platelet-derived growth factor receptor alpha, sequence (P16234 whole entry): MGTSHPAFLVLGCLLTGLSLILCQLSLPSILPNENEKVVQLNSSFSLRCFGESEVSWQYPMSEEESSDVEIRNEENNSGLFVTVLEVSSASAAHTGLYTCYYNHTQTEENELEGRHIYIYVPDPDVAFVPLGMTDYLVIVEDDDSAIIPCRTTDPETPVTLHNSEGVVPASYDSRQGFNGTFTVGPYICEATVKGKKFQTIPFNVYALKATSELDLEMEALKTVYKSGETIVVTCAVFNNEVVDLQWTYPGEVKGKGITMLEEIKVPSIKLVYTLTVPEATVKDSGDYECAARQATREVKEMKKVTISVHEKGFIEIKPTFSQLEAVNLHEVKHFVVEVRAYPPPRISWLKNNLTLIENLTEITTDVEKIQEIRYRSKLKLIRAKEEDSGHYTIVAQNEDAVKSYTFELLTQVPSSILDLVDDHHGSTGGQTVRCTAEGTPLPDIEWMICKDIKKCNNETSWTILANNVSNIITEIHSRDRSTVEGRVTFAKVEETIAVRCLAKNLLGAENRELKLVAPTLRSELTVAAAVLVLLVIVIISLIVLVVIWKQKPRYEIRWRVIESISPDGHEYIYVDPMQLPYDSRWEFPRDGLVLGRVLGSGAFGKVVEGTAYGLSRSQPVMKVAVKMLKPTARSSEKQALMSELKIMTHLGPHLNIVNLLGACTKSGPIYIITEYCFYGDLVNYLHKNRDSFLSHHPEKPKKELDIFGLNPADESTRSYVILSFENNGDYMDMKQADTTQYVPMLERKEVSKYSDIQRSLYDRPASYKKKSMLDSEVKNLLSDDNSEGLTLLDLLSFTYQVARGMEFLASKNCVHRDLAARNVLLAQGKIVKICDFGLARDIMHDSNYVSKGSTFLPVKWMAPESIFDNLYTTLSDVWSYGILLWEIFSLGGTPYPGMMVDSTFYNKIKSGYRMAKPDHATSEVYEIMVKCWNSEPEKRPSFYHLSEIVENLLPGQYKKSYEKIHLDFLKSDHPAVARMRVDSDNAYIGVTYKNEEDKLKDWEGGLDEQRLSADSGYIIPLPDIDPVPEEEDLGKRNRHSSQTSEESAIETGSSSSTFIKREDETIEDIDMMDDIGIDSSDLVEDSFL

Proto-oncogene tyrosine-protein kinase Src, sequence (P12931 2-536 limits assumed): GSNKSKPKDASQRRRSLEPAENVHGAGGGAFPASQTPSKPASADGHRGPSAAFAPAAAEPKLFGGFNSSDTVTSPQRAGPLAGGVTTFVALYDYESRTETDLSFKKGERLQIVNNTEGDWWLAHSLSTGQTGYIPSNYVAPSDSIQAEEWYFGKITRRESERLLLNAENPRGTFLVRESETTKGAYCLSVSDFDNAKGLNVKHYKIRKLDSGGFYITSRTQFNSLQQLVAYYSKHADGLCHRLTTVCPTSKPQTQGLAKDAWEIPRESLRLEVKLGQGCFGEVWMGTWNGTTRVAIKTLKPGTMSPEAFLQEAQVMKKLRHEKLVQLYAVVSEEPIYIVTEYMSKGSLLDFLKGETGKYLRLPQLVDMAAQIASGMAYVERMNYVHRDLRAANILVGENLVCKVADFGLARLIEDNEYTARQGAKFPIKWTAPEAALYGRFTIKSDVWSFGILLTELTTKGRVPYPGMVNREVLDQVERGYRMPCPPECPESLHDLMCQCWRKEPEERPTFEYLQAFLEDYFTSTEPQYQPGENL
Serine/threonine-protein kinase 10 (Homo sapiens), sequence (O94804 whole entry, looked up): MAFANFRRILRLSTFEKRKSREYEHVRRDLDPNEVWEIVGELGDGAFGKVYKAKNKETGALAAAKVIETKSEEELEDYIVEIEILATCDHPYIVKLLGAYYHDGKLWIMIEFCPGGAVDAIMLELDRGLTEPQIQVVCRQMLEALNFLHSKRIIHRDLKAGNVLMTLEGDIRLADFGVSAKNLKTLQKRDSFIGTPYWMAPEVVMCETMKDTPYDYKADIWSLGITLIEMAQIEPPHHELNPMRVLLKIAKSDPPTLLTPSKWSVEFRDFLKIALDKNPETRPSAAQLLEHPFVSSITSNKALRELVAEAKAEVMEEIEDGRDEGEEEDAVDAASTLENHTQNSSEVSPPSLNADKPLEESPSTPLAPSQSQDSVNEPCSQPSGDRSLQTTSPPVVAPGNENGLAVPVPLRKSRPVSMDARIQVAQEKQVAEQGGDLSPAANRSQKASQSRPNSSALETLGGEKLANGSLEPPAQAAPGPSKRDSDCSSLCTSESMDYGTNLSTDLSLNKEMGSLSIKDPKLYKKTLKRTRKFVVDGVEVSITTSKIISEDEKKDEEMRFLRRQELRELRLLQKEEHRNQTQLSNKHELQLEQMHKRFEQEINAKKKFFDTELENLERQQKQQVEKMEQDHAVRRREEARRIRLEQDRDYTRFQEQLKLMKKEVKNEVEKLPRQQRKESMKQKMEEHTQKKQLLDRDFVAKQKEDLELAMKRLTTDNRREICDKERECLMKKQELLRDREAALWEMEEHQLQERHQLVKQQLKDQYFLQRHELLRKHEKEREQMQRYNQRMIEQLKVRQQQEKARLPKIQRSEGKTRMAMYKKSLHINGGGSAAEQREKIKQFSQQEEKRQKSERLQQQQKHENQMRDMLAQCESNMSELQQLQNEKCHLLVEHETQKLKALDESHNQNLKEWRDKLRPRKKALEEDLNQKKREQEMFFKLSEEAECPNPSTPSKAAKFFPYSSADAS
Tyrosine-protein kinase HCK (Homo sapiens), sequence (P08631 2-526 limits assumed): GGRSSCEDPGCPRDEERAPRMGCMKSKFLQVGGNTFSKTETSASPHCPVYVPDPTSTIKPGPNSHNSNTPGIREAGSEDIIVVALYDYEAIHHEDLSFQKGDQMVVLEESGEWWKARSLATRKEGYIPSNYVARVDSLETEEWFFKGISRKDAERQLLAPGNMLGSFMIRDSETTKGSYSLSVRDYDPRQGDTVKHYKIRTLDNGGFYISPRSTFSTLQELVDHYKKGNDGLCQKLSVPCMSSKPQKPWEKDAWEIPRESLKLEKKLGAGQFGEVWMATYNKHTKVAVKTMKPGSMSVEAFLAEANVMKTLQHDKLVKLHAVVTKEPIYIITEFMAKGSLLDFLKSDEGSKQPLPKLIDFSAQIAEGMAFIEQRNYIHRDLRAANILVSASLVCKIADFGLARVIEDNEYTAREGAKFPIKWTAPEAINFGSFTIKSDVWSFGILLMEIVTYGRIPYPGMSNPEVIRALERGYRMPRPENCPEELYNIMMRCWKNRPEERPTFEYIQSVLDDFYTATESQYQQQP
Serine/threonine-protein kinase 38-like (Homo sapiens), sequence (Q9Y2H1 2-464 limits assumed): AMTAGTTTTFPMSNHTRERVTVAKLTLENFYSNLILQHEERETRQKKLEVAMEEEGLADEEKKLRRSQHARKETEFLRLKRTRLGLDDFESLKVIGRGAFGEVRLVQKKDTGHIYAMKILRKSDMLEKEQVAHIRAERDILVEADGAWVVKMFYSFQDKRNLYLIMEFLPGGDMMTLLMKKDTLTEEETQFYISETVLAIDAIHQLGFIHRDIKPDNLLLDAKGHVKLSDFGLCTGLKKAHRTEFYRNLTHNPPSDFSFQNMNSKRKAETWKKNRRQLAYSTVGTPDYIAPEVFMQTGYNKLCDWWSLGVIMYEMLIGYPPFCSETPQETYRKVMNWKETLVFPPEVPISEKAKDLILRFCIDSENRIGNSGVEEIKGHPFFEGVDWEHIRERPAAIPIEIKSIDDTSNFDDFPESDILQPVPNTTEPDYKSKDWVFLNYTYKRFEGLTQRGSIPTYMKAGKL

CC[C@@H]1[C@H](F)C(=O)N[C@@H]1COc1nccc2cc(C(N)=O)c(OC)cc12 [ZIMLOVISERTIB]
% of inhibition [1]: -10.5%
% of inhibition [2]: 2.6%

CNCCN1CCC(c2cc(CN(C)C(=O)c3cccc(Oc4ccccc4)c3)ccn2)CC1
% of growth rate [3]: -22.5%

CN1Cc2nccc(-c3cn(C)nc3-c3ccc(F)cc3)c2C1=O
% of inhibition [4]: 6%

Cn1cc(-n2cnc3c(NCc4nc5cc(Cl)c(Cl)cc5[nH]4)nc(N4CCOCC4)nc32)cn1
% of control [5]: 5.35%

Cc1cc(F)c(C(=O)Nc2cccc(-c3nncn3C(C)C)n2)cc1-n1cnc(C2CC2)c1
% of control [6]: 100%

Nc1cnc(N2CCc3cc(S(=O)(=O)Nc4c(F)cc(Cl)cc4F)cc(N4CCCC4=O)c32)nc1 [TP-020n]
% of control [7]: 100%

CNC(=O)Nc1ccc(-c2nc(N3CC4CCC(C3)O4)c3cnn(C4CCC5(CC4)OCCO5)c3n2)cc1
% of control [8]: 80%
